2 molecules from ChEMBL document CHEMBL1157712, “Hit to lead account of the discovery of bisbenzamide and related ureidobenzamide inhibitors of Rho kinase” (J Med Chem, 2010) can be followed below.

pIC50: −log10 of the molar value.

The term residual activity denotes the share of the control activity or signal that is left under treatment. As a reminder, the pIC50 is the negative decadic logarithm of the IC50, by convention in mol/L. Read a low pIC50 as a high IC50.

Test [1] has as its target Dual specificity tyrosine-phosphorylation-regulated kinase 1A (Homo sapiens) (UniProt Q13627). The note with it: 3 to 6 uM.
Description: Inhibition of DYRK1A at 3 to 6 uM relative to control
Test [2] concerns the target Serine/threonine-protein kinase 26 (Homo sapiens, UniProt Q9P289). The test can be described thus: Inhibition of MST4.
For test [3], the target named is Aurora kinase B (Homo sapiens) (UniProt Q96GD4). The following applies: 3 to 6 uM.
Sequence of Aurora kinase B (Homo sapiens) (Q96GD4 whole entry): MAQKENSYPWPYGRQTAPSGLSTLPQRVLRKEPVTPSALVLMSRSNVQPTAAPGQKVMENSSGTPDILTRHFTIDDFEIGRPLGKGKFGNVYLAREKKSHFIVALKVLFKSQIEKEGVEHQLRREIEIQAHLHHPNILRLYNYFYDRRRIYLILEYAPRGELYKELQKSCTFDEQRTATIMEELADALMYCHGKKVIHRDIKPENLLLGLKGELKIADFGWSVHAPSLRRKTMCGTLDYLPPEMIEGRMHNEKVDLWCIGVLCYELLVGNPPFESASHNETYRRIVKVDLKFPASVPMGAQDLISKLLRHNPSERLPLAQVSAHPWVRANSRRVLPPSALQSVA
Description: Inhibition of Aurora B at 3 to 6 uM relative to control
For test [4], the target named is Glycogen synthase kinase-3 beta (Homo sapiens) (UniProt P49841). Description: Inhibition of GSK3-beta at 3 uM relative to control; values are per cent of control.
Sequence of Glycogen synthase kinase-3 beta (Homo sapiens) (P49841 whole entry, looked up): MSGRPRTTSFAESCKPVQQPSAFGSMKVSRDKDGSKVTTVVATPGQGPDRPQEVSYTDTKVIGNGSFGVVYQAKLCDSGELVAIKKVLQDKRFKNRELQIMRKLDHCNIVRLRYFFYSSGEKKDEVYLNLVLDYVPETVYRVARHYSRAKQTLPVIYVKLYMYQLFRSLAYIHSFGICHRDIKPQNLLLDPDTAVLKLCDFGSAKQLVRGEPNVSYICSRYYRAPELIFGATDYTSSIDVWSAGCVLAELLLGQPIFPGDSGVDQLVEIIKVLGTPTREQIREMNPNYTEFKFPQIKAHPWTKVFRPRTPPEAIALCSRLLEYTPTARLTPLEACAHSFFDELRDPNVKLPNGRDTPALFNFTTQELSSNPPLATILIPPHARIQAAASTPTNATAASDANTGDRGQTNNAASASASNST
Test [5] has as its target MAP kinase-interacting serine/threonine-protein kinase 2 (Homo sapiens) (UniProt Q9HBH9). Description: Inhibition of MNK2 at 3 uM relative to control; values are per cent of control.
For test [6], the target named is Serine/threonine-protein kinase Chk2 (Homo sapiens) (UniProt O96017). The test can be described thus: Inhibition of CHK2 at 3 uM relative to control; values are per cent of control.
Sequence of Serine/threonine-protein kinase Chk2 (Homo sapiens) (O96017 whole entry): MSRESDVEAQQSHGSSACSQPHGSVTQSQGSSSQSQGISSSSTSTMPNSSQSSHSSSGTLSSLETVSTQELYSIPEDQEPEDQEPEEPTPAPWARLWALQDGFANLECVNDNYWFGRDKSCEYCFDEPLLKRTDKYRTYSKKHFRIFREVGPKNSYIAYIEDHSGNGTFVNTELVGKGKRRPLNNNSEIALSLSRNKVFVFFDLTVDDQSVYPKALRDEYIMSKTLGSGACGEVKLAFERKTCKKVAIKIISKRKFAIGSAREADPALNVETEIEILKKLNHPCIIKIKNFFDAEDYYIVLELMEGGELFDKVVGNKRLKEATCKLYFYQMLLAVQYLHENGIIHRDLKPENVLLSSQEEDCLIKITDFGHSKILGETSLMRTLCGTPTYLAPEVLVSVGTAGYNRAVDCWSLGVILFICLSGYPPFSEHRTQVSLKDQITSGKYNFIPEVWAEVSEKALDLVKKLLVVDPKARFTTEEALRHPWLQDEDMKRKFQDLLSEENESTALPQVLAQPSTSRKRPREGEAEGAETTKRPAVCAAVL
Test [7] has as its target T1, Protein kinase C epsilon type (Homo sapiens, UniProt Q02156).
T1 sequence (Q02156 whole entry): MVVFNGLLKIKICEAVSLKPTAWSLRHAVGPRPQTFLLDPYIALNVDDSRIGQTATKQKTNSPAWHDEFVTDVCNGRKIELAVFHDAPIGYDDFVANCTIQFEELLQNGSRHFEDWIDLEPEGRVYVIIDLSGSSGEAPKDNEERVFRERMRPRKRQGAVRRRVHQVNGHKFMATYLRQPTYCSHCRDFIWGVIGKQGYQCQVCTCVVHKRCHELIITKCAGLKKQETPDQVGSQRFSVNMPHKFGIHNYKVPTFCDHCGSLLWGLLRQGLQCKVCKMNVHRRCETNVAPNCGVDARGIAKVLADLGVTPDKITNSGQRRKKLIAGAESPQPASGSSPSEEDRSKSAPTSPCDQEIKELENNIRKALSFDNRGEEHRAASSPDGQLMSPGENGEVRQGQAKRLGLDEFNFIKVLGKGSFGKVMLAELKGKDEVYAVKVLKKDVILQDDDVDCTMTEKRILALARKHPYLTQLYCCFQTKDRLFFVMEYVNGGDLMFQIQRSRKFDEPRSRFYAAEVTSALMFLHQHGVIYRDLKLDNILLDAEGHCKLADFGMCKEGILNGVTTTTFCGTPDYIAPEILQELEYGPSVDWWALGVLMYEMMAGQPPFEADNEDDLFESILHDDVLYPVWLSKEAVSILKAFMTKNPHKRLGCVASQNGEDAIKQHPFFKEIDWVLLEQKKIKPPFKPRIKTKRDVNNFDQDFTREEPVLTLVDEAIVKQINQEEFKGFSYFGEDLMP
The test can be described thus: Inhibition of PKCepsilon.

Test [8] concerns the target Calcium/calmodulin-dependent protein kinase type 1 (Homo sapiens) (UniProt Q14012). Description: Inhibition of CAMK1 at 3 uM relative to control; values are per cent of control.

Sequence of Calcium/calmodulin-dependent protein kinase type 1 (Homo sapiens) (Q14012 whole entry, looked up): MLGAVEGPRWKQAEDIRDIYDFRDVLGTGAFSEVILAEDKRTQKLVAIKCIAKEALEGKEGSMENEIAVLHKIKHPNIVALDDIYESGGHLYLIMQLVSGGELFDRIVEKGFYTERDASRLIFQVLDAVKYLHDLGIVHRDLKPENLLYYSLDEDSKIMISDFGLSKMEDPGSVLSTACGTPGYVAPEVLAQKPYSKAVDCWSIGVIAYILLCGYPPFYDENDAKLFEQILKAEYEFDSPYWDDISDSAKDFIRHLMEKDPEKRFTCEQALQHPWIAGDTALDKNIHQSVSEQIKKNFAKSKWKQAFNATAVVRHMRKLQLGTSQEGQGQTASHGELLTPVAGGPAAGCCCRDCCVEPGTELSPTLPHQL
Sequence of MAP kinase-interacting serine/threonine-protein kinase 2 (Homo sapiens) (Q9HBH9 whole entry, looked up): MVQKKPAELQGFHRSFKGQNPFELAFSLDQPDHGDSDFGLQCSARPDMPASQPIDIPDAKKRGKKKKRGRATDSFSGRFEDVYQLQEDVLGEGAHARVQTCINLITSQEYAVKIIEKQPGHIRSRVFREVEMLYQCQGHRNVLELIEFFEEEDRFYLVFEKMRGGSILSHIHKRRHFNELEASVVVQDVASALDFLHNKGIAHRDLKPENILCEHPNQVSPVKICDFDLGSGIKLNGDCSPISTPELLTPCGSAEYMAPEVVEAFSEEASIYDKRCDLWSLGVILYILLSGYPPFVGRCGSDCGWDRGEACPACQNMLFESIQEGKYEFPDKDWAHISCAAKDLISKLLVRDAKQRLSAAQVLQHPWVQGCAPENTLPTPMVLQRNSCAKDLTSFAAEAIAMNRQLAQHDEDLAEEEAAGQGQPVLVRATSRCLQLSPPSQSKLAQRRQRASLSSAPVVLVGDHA
Sequence of Serine/threonine-protein kinase 26 (Q9P289 whole entry): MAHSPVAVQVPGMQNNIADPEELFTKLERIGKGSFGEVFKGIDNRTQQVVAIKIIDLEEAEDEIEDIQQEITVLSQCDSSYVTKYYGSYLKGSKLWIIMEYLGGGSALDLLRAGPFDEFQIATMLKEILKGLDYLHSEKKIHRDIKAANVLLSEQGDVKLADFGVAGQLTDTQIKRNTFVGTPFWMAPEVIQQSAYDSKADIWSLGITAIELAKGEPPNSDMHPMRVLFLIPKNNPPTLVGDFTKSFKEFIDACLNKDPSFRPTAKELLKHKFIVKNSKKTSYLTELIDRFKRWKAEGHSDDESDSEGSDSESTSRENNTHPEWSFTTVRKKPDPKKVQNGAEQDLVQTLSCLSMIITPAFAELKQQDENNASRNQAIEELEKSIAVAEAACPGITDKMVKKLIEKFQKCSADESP

As to `COc1ccc(C(=O)NCc2cccc(C(=O)Nc3ccc4c(c3)CNCC4)c2)cc1OC`, the residual activity in test [1] and in test [3] was above 50% throughout. The pIC50 in test [2] was below 5.00.
Take `NC(=O)c1ccc(NC(=O)NCc2cccc(C(=O)Nc3ccc4c(c3)CNCC4)c2)cc1`: the residual activity in test [4], in test [5], in test [6] and in test [8] was above 50% throughout. Also, the pIC50 in test [7] is below 5.30.
